Assay results reported in ChEMBL document CHEMBL1201862, “PubChem BioAssay data set” (2004).
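48-hour exposure; five concentrations; linearly interpolated endpoints. GI50 is the concentration that inhibits growth by half.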 Active and inactive are the calls of the source. Cut-off read from the data, not from the text of the source: active = GI50 up to about 1.1 µM and inactive = higher.

How the values were obtained:
Experiment in all cases: NCI-60 cell line screen, 48 h
CAKI-1 = test system: CAKI-1
SNB-19 = test system: SNB-19
A549 = test system: A549
OVCAR-5 = test system: OVCAR-5
SF-539 = test system: SF-539
786-0 = test system: 786-0
SF-295 = test system: SF-295
NCI-H226 = test system: NCI-H226
NCI-H23 = test system: NCI-H23
OVCAR-3 = test system: OVCAR-3
TK-10 = test system: TK-10
SN12C = test system: SN12C
SK-MEL-28 = test system: SK-MEL-28
SK-MEL-5 = test system: SK-MEL-5
SK-MEL-2 = test system: SK-MEL-2
SF-268 = test system: SF-268
OVCAR-4 = test system: OVCAR-4
SR = test system: SR

Measured: GI50

CC(=O)NNc1nc(C)c(C(/C=C/c2ccc(/C=C/C(=N\NC(=O)c3ccncc3)c3sc(NNC(C)=O)nc3C)cc2)=N/NC(=O)c2ccncc2)s1
inactive: CAKI-1 > 100 µM | SNB-19 > 100 µM | A549 > 100 µM | OVCAR-5 > 100 µM | SF-539 > 100 µM | 786-0 > 100 µM | SF-295 > 100 µM | NCI-H226 > 100 µM | NCI-H23 > 100 µM | OVCAR-3 > 100 µM | TK-10 > 100 µM | SN12C > 100 µM | SK-MEL-28 > 100 µM | SK-MEL-5 > 100 µM | SK-MEL-2 > 100 µM | SF-268 > 100 µM

O=C(CC1(O)C(=O)Nc2c(Cl)ccc(Cl)c21)c1ccc2ccccc2c1 (centres undefined)
inactive: CAKI-1 4.46 µM | SNB-19 16.1 µM | A549 18.3 µM | OVCAR-4 2.29 µM | OVCAR-5 17.3 µM | SF-539 13.5 µM | 786-0 6.25 µM | SF-295 4.92 µM | NCI-H226 19.2 µM | NCI-H23 10.4 µM | OVCAR-3 4.17 µM | TK-10 16.2 µM | SN12C 16.4 µM | SR 3.21 µM | SK-MEL-28 14.8 µM | SK-MEL-5 5.65 µM | SK-MEL-2 11.6 µM | SF-268 14.5 µM

C=C(C)C1C/C=C(/C)CCCC2(CCC3=C(CC(C(=C)C)C/C=C(/C)CCC3)O2)C(=O)C1 (centres undefined)
inactive: SNB-19 > 100 µM | A549 > 100 µM | OVCAR-4 > 100 µM | SF-539 > 100 µM | 786-0 > 100 µM | SF-295 > 100 µM | NCI-H226 > 100 µM | NCI-H23 > 100 µM | TK-10 > 100 µM | SN12C > 100 µM | SR > 100 µM | SK-MEL-28 > 100 µM | SK-MEL-2 > 100 µM | SF-268 > 100 µM

Nc1c(-c2ccc(-c3c(N)[n+]([O-])c4ccccc4[n+]3[O-])cc2)[n+]([O-])c2ccccc2[n+]1[O-]
inactive: CAKI-1 6.65 µM | SNB-19 13.7 µM | A549 20.9 µM | OVCAR-4 17.7 µM | OVCAR-5 20.5 µM | SF-539 4.92 µM | 786-0 13.5 µM | SF-295 16 µM | NCI-H226 20.6 µM | NCI-H23 6.21 µM | OVCAR-3 15.7 µM | TK-10 17.6 µM | SN12C 11.7 µM | SK-MEL-28 5.73 µM | SK-MEL-5 10.1 µM | SK-MEL-2 13.7 µM | SF-268 17.2 µM

CCOC(=O)C(Oc1ccc(OC)c2c1C(=O)CCC2)c1ccccc1 (centres undefined)
inactive: CAKI-1 > 100 µM | SNB-19 > 100 µM | A549 > 100 µM | OVCAR-4 48.9 µM | OVCAR-5 > 100 µM | SF-539 > 100 µM | 786-0 > 100 µM | SF-295 69.5 µM | NCI-H23 25.5 µM | OVCAR-3 > 100 µM | TK-10 > 100 µM | SN12C > 100 µM | SK-MEL-28 > 100 µM | SK-MEL-5 43.2 µM | SK-MEL-2 > 100 µM | SF-268 > 100 µM

C/C(CC(=O)Nc1cccc([N+](=O)[O-])c1)=N/NC(N)=S
inactive: A549 > 100 µM | OVCAR-5 > 100 µM | SF-539 > 100 µM | 786-0 > 100 µM | SF-295 > 100 µM | NCI-H226 > 100 µM | NCI-H23 > 100 µM | OVCAR-3 > 100 µM | TK-10 > 100 µM | SK-MEL-28 > 100 µM | SK-MEL-5 > 100 µM | SK-MEL-2 > 100 µM | SF-268 > 100 µM

Cc1ccc(S(=O)(=O)N/N=C(\c2nc3ccc([N+](=O)[O-])cc3[nH]c2=O)C(O)c2ccc([N+](=O)[O-])cc2)cc1 (centres undefined)
inactive: CAKI-1 97.1 µM | SNB-19 > 100 µM | A549 > 100 µM | OVCAR-4 68.9 µM | OVCAR-5 67.1 µM | SF-539 > 100 µM | 786-0 > 100 µM | SF-295 > 100 µM | NCI-H23 > 100 µM | OVCAR-3 > 100 µM | TK-10 > 100 µM | SN12C > 100 µM | SK-MEL-28 > 100 µM | SK-MEL-5 73.8 µM | SK-MEL-2 > 100 µM | SF-268 63.5 µM

FC(F)(F)c1ccc2nc(Nc3ccc(Cl)c(Cl)c3)c(-c3ccccc3)nc2c1
inactive: SNB-19 74 µM | A549 17.1 µM | OVCAR-5 > 100 µM | SF-539 19.4 µM | 786-0 12.1 µM | SF-295 18.7 µM | NCI-H226 > 100 µM | NCI-H23 > 100 µM | OVCAR-3 37.5 µM | TK-10 73.1 µM | SN12C 75.2 µM | SR 6.64 µM | SK-MEL-28 82.8 µM | SK-MEL-2 > 100 µM | SF-268 14.6 µM

O=C(NC12CC3CC(CC(C3)C1)C2)C(=O)c1c[nH]c2ccc(Cl)cc12
inactive: SNB-19 26.8 µM | A549 > 100 µM | OVCAR-4 21.2 µM | OVCAR-5 > 100 µM | SF-539 16.5 µM | 786-0 6.24 µM | SF-295 11.1 µM | NCI-H226 37.4 µM | NCI-H23 > 100 µM | OVCAR-3 13.8 µM | SN12C 56.1 µM | SR 54.5 µM | SK-MEL-28 35.4 µM | SK-MEL-5 42.2 µM | SK-MEL-2 26.7 µM | SF-268 49 µM

CN1C(c2ccccc2)CS(=O)(=O)CS1(=O)=O (centres undefined)
inactive: CAKI-1 > 100 µM | SNB-19 > 100 µM | A549 > 100 µM | OVCAR-4 > 100 µM | OVCAR-5 > 100 µM | SF-539 > 100 µM | 786-0 > 100 µM | SF-295 > 100 µM | NCI-H23 > 100 µM | OVCAR-3 30.1 µM | TK-10 > 100 µM | SN12C > 100 µM | SK-MEL-28 > 100 µM | SK-MEL-5 > 100 µM | SK-MEL-2 > 100 µM | SF-268 > 100 µM

O=C1CNC(=O)c2[nH]cnc2N1
inactive: SNB-19 > 100 µM | A549 > 100 µM | OVCAR-4 > 100 µM | OVCAR-5 > 100 µM | SF-539 > 100 µM | 786-0 > 100 µM | SF-295 > 100 µM | NCI-H226 > 100 µM | NCI-H23 > 100 µM | OVCAR-3 > 100 µM | TK-10 > 100 µM | SN12C > 100 µM | SR > 100 µM | SK-MEL-28 > 100 µM | SK-MEL-5 > 100 µM | SF-268 > 100 µM

CC(=O)Nc1[nH]c(=O)[nH]c(=O)c1N(C(C)=O)C(C)=O
inactive: CAKI-1 > 100 µM | SNB-19 > 100 µM | A549 > 100 µM | OVCAR-4 > 100 µM | OVCAR-5 > 100 µM | SF-539 > 100 µM | 786-0 > 100 µM | SF-295 > 100 µM | NCI-H226 > 100 µM | OVCAR-3 > 100 µM | SN12C > 100 µM | SK-MEL-28 > 100 µM | SK-MEL-5 > 100 µM | SK-MEL-2 > 100 µM | SF-268 > 100 µM

CN1N=C2c3ccccc3OC(c3ccccc3)[C@H]2C1c1ccccc1 (some centres undefined)
inactive: SNB-19 > 100 µM | A549 72.9 µM | OVCAR-4 85.1 µM | OVCAR-5 > 100 µM | SF-539 > 100 µM | 786-0 > 100 µM | SF-295 90.4 µM | NCI-H226 > 100 µM | NCI-H23 79.4 µM | OVCAR-3 > 100 µM | TK-10 > 100 µM | SN12C > 100 µM | SR > 100 µM | SK-MEL-28 > 100 µM | SK-MEL-2 > 100 µM | SF-268 > 100 µM

N#CCC(=O)NC1C2CC3CC(C2)CC1C3 (centres undefined)
inactive: CAKI-1 18.6 µM | SNB-19 17.3 µM | A549 34 µM | OVCAR-4 21.2 µM | OVCAR-5 22.1 µM | SF-539 18 µM | 786-0 19.5 µM | SF-295 16.7 µM | NCI-H226 22.2 µM | NCI-H23 16.6 µM | OVCAR-3 18.1 µM | TK-10 19.4 µM | SN12C 16.1 µM | SK-MEL-28 19.1 µM | SK-MEL-5 14.6 µM | SK-MEL-2 19.5 µM | SF-268 17.7 µM

CC(=O)NC(CCCCNC(=O)N(C)N=O)C(=O)NCc1ccccc1 (centres undefined)
inactive: CAKI-1 > 100 µM | SNB-19 > 100 µM | A549 > 100 µM | OVCAR-4 > 100 µM | OVCAR-5 > 100 µM | SF-539 > 100 µM | 786-0 > 100 µM | SF-295 > 100 µM | NCI-H226 > 100 µM | NCI-H23 > 100 µM | OVCAR-3 > 100 µM | TK-10 > 100 µM | SN12C > 100 µM | SK-MEL-28 > 100 µM | SK-MEL-5 > 100 µM | SK-MEL-2 > 100 µM | SF-268 > 100 µM

CSCCC(C(=O)O)N(CC1(O)OCC(O)C(O)C1O)N=O (centres undefined)
inactive: A549 > 100 µM | OVCAR-5 > 100 µM | SF-539 > 100 µM | 786-0 > 100 µM | NCI-H23 > 100 µM | OVCAR-3 > 100 µM | TK-10 > 100 µM | SK-MEL-28 > 100 µM | SK-MEL-5 > 100 µM | SK-MEL-2 > 100 µM

CCCCCN(CCCCC)C(=O)[C@@H](CCC(=O)O)NC(=O)c1cc2ccccc2[nH]1
inactive: CAKI-1 25.1 µM | SNB-19 34.9 µM | A549 39.3 µM | OVCAR-4 44 µM | OVCAR-5 > 100 µM | SF-539 22.3 µM | 786-0 46.5 µM | SF-295 33.9 µM | NCI-H226 37.3 µM | NCI-H23 22.8 µM | OVCAR-3 33.9 µM | TK-10 46.6 µM | SN12C 43.4 µM | SK-MEL-28 21.4 µM | SK-MEL-2 27.7 µM | SF-268 24.5 µM
